What was measured:
[1] = target: T1, human Brd4 BD1 (hBrd4 BD1) (Homo sapiens, UniProt O60885); assay: HTRF competition with biotinylated H4ac4 peptide; type: binding
CgBdf1 BD1 (CgBD1) [2] = target: T2, CgBdf1 BD1 (CgBD1) (Nakaseomyces glabratus, UniProt Q6FWV7); assay: HTRF competition with biotinylated H4ac4 peptide; type: binding
T2 sequence (Q6FWV7 100-228): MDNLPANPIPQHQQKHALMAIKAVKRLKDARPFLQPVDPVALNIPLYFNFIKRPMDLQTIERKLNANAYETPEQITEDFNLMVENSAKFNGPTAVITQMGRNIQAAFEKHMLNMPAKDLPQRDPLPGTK

[3] = target: T1, human Brd4 BD1 (hBrd4 BD1); assay: biochemical
CgBdf1 BD2 (CgBD2) [4] = target: T3, CgBdf1 BD2 (CgBD2) (Nakaseomyces glabratus, UniProt Q6FWV7); assay: HTRF competition with biotinylated H4ac4 peptide; type: binding
T3 sequence (Q6FWV7 269-391): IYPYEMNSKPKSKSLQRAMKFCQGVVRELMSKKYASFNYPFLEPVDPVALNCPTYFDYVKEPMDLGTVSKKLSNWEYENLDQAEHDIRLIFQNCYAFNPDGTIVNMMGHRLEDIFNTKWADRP

CgBdf1 BD1 (CgBD1) [5] = target: T2, CgBdf1 BD1 (CgBD1); assay: biochemical
CgBdf1 BD2 (CgBD2) [6] = target: T3, CgBdf1 BD2 (CgBD2); assay: biochemical
[7] = target: T4, human Brd4 BD2 (hBrd4 BD2) (Homo sapiens, UniProt O60885); assay: biochemical
[8] = target: T4, human Brd4 BD2 (hBrd4 BD2); assay: HTRF competition with biotinylated H4ac4 peptide; type: binding

Row | SMILES | IC50 [1] [µM] | IC50 (CgBdf1 BD1 (CgBD1) [2]) [µM] | IC50 [3] [µM] | IC50 (CgBdf1 BD2 (CgBD2) [4]) [µM] | IC50 (CgBdf1 BD1 (CgBD1) [5]) [µM] | IC50 (CgBdf1 BD2 (CgBD2) [6]) [µM] | IC50 [7] [µM] | IC50 [8] [µM]
1 | Cn1nccc1C(=O)NCc1ccc(-c2nc(-c3cccs3)no2)s1 [compound 63, 63] | 25.9 ± 7.9 | 0.61 ± 0.1 | > 20 | – | – | – | – | –
2 | CC(=O)N1CCc2[nH]c3ccc(C(=O)Nc4ccc(N5CCOCC5)cc4)cc3c2C1 [compound 29, 29] | – | 1.81 ± 1.14 | 2.9 | 2.06 ± 0.23 | 1.1 | 2.3 | 0.44 | –
3 | Cc1ccc(-c2nnc(C)c(NCc3cccs3)n2)cc1 [compound 24, 24] | > 20 | 2.23 ± 0.26 | – | > 20 | – | – | – | > 20

— article doi:10.1101/2023.02.03.527073v1 (biorxiv, 2023)
